Data published in patent US20200131159A1, “POSITIVE ALLOSTERIC MODULATORS OF THE MUSCARINIC ACETYLCHOLINE RECEPTOR M1” (Vanderbilt University, priority 2018, published 2020).

Target: T1, human mAChR M1 (Homo sapiens, UniProt P11229)
T1 construct: hM1 and hM4 cDNAs were purchased from Missouri S&T cDNA Resource; host or cells: CHO-K1 cells, stably transfected with Lipofectamine2000
T1 sequence (P11229 1-460): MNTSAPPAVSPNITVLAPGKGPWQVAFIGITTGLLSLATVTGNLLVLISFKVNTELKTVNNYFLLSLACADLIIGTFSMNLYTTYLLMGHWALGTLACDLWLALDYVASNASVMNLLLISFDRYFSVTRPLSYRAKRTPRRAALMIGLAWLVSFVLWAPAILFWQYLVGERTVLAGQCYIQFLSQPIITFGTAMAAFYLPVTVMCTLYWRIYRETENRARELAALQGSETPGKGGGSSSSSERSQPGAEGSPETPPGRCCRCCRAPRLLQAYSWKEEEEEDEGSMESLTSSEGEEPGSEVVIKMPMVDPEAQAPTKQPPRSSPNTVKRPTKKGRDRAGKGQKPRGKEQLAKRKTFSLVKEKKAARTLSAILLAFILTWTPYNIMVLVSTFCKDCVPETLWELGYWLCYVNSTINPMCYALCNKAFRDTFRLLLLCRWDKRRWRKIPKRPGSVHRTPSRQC
Experiment: mAChR M1 cell-based functional assay (calcium mobilization, PAM mode, EC20 acetylcholine)
Conditions: CHO-K1 cells expressing hM1, calcium flux (Fluo-4); for Emax: EC20 acetylcholine response; for EC50: concentration-dependent increase in the EC20 acetylcholine response
Text: Chinese hamster ovary (CHO-K1) cells stably expressing rat (r)M1 were purchased from the American Type Culture Collection and cultured according to their indicated protocol. CHO cells stably expressing human (h)M2, hM3, and hM5 were described previously (Levey, et al., 1991); hM1 and hM4 cDNAs were purchased from Missouri S&T cDNA Resource; rM4 cDNA was provided by T. I. Bonner (National Institutes of Health, Bethesda, Md.). rM2 and rM3 were cloned from a rat brain cDNA library and sequence verified. hM1, rM2, rM3, hM4, and rM4 cDNAs were used to stably transfect CHO-K1 cells purchased from the American Type Culture Collection using Lipofectamine2000. To make stable rM2, hM2, rM3, hM4, and rM4 cell lines for use in calcium mobilization assays, these cells also were stably transfected with a chimeric G-protein (Gqi5) (provided by B. R. Conklin, University of California, San Francisco) using Lipofectamine 2000. rM1, hM1, rM3, hM3, rM5, and hM5 cells were grown in Ham's F-12 medium containing 10% heat-inactivated fetal bovine serum (FBS), 20 mM HEPES, and 50 µg/mL G418 sulfate. rM2-Gqi5, hM2-Gqi5, and hM4-Gqi5 cells were grown in the same medium also containing 500 μg/mL Hygromycin B. Stable rM4-Gqi5 cells were grown in DMEM containing 10% heat-inactivated FBS, 20 mM HEPES, 400 μg/mL G418 sulfate, and 500 μg/mL Hygromycin B.
For high throughput measurement of agonist-evoked increases in intracellular calcium, CHO-K1 cells stably expressing muscarinic receptors were plated in growth medium lacking G418 and hygromycin at 15,000 cells/20 μL/well in Greiner 384-well black-walled, tissue culture (TC)-treated, clear-bottom plates (VWR). Cells were incubated overnight at 37° C. and 5% CO2. The next day, cells were washed using an ELX 405 (BioTek) with four washes (80 μL) of assay buffer then aspirated to 20 μL. Next, 20 μL of 16 μM Fluo-4/acetoxymethyl ester (Invitrogen, Carlsbad, Calif.) prepared as a 2.3 mM stock in DMSO and mixed in a 1:1 ratio with 10% (w/v) Pluronic F-127 and diluted in assay buffer was added to the wells and the cell plates were incubated for 50 min at 37° C. and 5% CO2. Dye was removed by washing with the ELX 405 (four 80 μL washes of assay buffer) then aspirated to 20 μL. Compound master plates were formatted in an 11 point CRC format (1:3 dilutions) in 100% DMSO with a starting concentration of 10 mM using the BRAVO liquid handler (Agilent). Test compound CRCs were then transferred to daughter plates (240 nL) using the Echo acoustic plate reformatter (Labcyte, Sunnyvale, Calif.) and then diluted into assay buffer (40 μL) to a 2× stock using a Thermo Fisher Combi (Thermo Fisher Scientific, Waltham, Mass.).
Calcium flux was measured using the Functional Drug Screening System (FDSS) 6000 (Hamamatsu Corporation, Tokyo, Japan) as an increase in the fluorescent static ratio. Compounds were applied to cells (20 μL, 2×) using the automated system of the FDSS 6000 at 4 s into the 300 s protocol and the data were collected at 1 Hz. […] Agonist activity was analyzed as a concentration-dependent increase in calcium mobilization upon compound addition. Emax values for agonist activity are expressed relative to the maximum for acetylcholine. Positive allosteric modulator activity was analyzed as a concentration-dependent increase in the EC20 acetylcholine response. Antagonist activity was analyzed as a concentration-dependent decrease in the […] acetylcholine response. Concentration-response curves were generated using a four-parameter logistical equation in XLfit curve fitting software (IDBS, Bridgewater, N.J.) for Excel (Microsoft, Redmond, Wash.) or Prism (GraphPad Software, Inc., San Diego, Calif.).
Activity (EC50 and Emax) was determined in the mAChR M1 cell-based functional assay as described above and the data are shown in Table 2. The compound numbers correspond to the compound numbers used in Table 1.

SMILES	Emax [%]	EC50 [nM]
O=C(N[C@H]1CCOC[C@@H]1O)c1cc(Cc2ccc(-n3cccn3)cc2)cc2cccnc12 [compound 1, N-[(3R,4S)-3-hydroxytetrahydropyran-4-yl]-6-[(4-pyrazol-1-ylphenyl)methyl]quinoline-8-carboxamide]	80	460
O=C(N[C@H]1CCCC[C@@H]1O)c1cc(Cc2ccc(-n3cccn3)cc2)cc2cccnc12 [compound 2, N-[(1S,2S)-2-hydroxycyclohexyl]-6-[(4-pyrazol-1-ylphenyl)methyl]quinoline-8-carboxamide]	81	1000
O=C(NC1CCOCC1)c1cc(Cc2ccc(-n3cccn3)cc2)cc2cccnc12 [compound 3, 6-[(4-pyrazol-1-ylphenyl)methyl]-N-tetrahydropyran-4-yl-quinoline-8-carboxamide]	45	2980
O=C(NC1CC2(COC2)C1)c1cc(Cc2ccc(-n3cccn3)cc2)cc2cccnc12 [compound 4, N-(2-oxaspiro[3.3]heptan-6-yl)-6-[(4-pyrazol-1-ylphenyl)methyl]quinoline-8-carboxamide]	67	6030
O=C(N[C@H]1CCC[C@@H]1O)c1cc(Cc2ccc(-n3cccn3)cc2)cc2cccnc12 [compound 5, N-[(1S,2S)-2-hydroxycyclopentyl]-6-[(4-pyrazol-1-ylphenyl)methyl]quinoline-8-carboxamide]	76	1660
O=C(N[C@H]1CC[C@@H]1O)c1cc(Cc2ccc(-n3cccn3)cc2)cc2cccnc12 [compound 6, N-[(1S,2S)-2-hydroxycyclobutyl]-6-[(4-pyrazol-1-ylphenyl)methyl]quinoline-8-carboxamide]	57	5490
O=C(N[C@H]1CCCCC[C@@H]1O)c1cc(Cc2ccc(-n3cccn3)cc2)cc2cccnc12 [compound 7, N-[(1S,2S)-2-hydroxycycloheptyl]-6-[(4-pyrazol-1-ylphenyl)methyl]quinoline-8-carboxamide]	87	2030
O=C(NCC1CCOCC1)c1cc(Cc2ccc(-n3cccn3)cc2)cc2cccnc12 [compound 8, 6-[(4-pyrazol-1-ylphenyl)methyl]-N-(tetrahydropyran-4-ylmethyl)quinoline-8-carboxamide]	49	8160
Cn1ccc(-c2ccc(Cc3cc(C(=O)N[C@H]4CCOC[C@@H]4O)c4ncccc4c3)cn2)n1 [compound 9, N-[(3R,4S)-3-hydroxytetrahydropyran-4-yl]-6-[[6-(1-methylpyrazol-3-yl)-3-pyridyl]methyl]quinoline-8-carboxamide]	79	308
Cn1ccc(-c2ccc(Cc3cc(C(=O)N[C@H]4CCCCC[C@@H]4O)c4ncccc4c3)cn2)n1 [compound 10, N-[(1S,2S)-2-hydroxycycloheptyl]-6-[[6-(1-methylpyrazol-3-yl)-3-pyridyl]methyl]quinoline-8-carboxamide]	84	922
Cn1ccc(-c2ccc(Cc3cc(C(=O)N[C@H]4CCCC[C@@H]4O)c4ncccc4c3)cn2)n1 [compound 11, N-[(1S,2S)-2-hydroxycyclohexyl]-6-[[6-(1-methylpyrazol-3-yl)-3-pyridyl]methyl]quinoline-8-carboxamide]	82	384
Cn1ccc(-c2ccc(Cc3cc(C(=O)N[C@H]4CCC[C@@H]4O)c4ncccc4c3)cn2)n1 [compound 12, N-[(1S,2S)-2-hydroxycyclopentyl]-6-[[6-(1-methylpyrazol-3-yl)-3-pyridyl]methyl]quinoline-8-carboxamide]	82	1390
Cn1ccc(-c2ccc(Cc3cc(C(=O)N[C@H]4CC[C@@H]4O)c4ncccc4c3)cn2)n1 [compound 13, N-[(1S,2S)-2-hydroxycyclobutyl]-6-[[6-(1-methylpyrazol-3-yl)-3-pyridyl]methyl]quinoline-8-carboxamide]	75	–
Cn1ccc(-c2ccc(Cc3cc(C(=O)NC4CC5(COC5)C4)c4ncccc4c3)cn2)n1 [compound 14, 6-[[6-(1-methylpyrazol-3-yl)-3-pyridyl]methyl]-N-(2-oxaspiro[3.3]heptan-6-yl)quinoline-8-carboxamide]	73	5290
Cn1ccc(-c2ccc(Cc3cc(C(=O)NC4CCOCC4)c4ncccc4c3)cn2)n1 [compound 15, 6-[[6-(1-methylpyrazol-3-yl)-3-pyridyl]methyl]-N-tetrahydropyran-4-yl-quinoline-8-carboxamide]	66	–
Cc1nc(-c2ccc(Cc3cc(C(=O)N[C@H]4CCOC[C@@H]4O)c4ncccc4c3)cc2)co1 [compound 16, N-[(3R,4S)-3-hydroxytetrahydropyran-4-yl]-6-[[4-(2-methyloxazol-4-yl)phenyl]methyl]quinoline-8-carboxamide]	86	438
Cc1nc(-c2ccc(Cc3cc(C(=O)N[C@H]4CCCCC[C@@H]4O)c4ncccc4c3)cc2)co1 [compound 17, N-[(1S,2S)-2-hydroxycycloheptyl]-6-[[4-(2-methyloxazol-4-yl)phenyl]methyl]quinoline-8-carboxamide]	65	1820
Cc1nc(-c2ccc(Cc3cc(C(=O)N[C@H]4CCCC[C@@H]4O)c4ncccc4c3)cc2)co1 [compound 18, N-[(1S,2S)-2-hydroxycyclohexyl]-6-[[4-(2-methyloxazol-4-yl)phenyl]methyl]quinoline-8-carboxamide]	82	784
Cc1nc(-c2ccc(Cc3cc(C(=O)N[C@H]4CCC[C@@H]4O)c4ncccc4c3)cc2)co1 [compound 19, N-[(1S,2S)-2-hydroxycyclopentyl]-6-[[4-(2-methyloxazol-4-yl)phenyl]methyl]quinoline-8-carboxamide]	61	2170
Cc1nc(-c2ccc(Cc3cc(C(=O)NC4CC5(COC5)C4)c4ncccc4c3)cc2)co1 [compound 20, 6-[[4-(2-methyloxazol-4-yl)phenyl]methyl]-N-(2-oxaspiro[3.3]heptan-6-yl)quinoline-8-carboxamide]	48	4360
Cn1cc2c(-c3cc(F)c(Cc4cc(C(=O)N[C@H]5CCOC[C@@H]5O)c5ncccc5c4)c(F)c3)cccc2n1 [compound 21, 6-[[2,6-difluoro-4-(2-methylindazol-4-yl)phenyl]methyl]-N-[(3R,4S)-3-hydroxytetrahydropyran-4-yl]quinoline-8-carboxamide]	67	3140
